# Results reported in PubChem BioAssay AID1963984 (Molecular Pharmacology Branch, DTP, NCI, 2024).
# Test system: 233499-124-R-J3-PDC spheroids with HUVEC/MSC, viability
# Assay: Anticancer human tumor 233499-124-R-J3-PDC patient-derived colon adenocarcinoma cell line growth inhibition [PI3K]
# Conditions: for IC50: curve of first compound; for viability, T/C: stronger effect = lower value
# Description: Combinatorial screen of targeted agents with the PI3K inhibitors inavolisib, alpelisib, duvelisib, and copanlisib in multi-cell type tumor spheroids
# A high-throughput screen of multi-cell type tumor spheroids was designed to identify active combinations of targeted small molecules and PI3K pathway inhibitors. Complex spheroids include a stromal component modeled by human endothelial cells (HUVEC) and fibroblasts modeled by human mesenchymal stem cells (MSCs). The concentration ranges selected for each drug and investigational agent were based upon clinically achievable concentrations if the clinical Cmax of the agent was known.
# Compounds. The drugs and investigational agents: inavolisib (NSC800729), alpelisib (NSC765974), duvelisib (NSC772469), copanlisib (NSC816437), ipatasertib (NSC767898), afuresertib (NSC778305), talazoparib (NSC767125), sapanisertib (NSC764658), selumetinib (NSC741078), tovorafenib (DAY101, NSC766906), vemurafenib (NSC761431), ravoxertinib (NSC781343), sotorasib (NSC818433), MRTX1133 (NSC 836407), abemaciclib (NSC 768073), palbociclib (NSC758247), venetoclax (NSC 766270), SY5609 (NSC837396), enzalutamide (NSC755605), and darolutamide (NSC825331), were obtained from the National Cancer Institute (NCI) Developmental Therapeutics Program Chemical Repository. The FDA-approved anticancer drug set is available from the NCI Developmental Therapeutics Program. […] The stock solutions were prepared in dimethyl sulfoxide (DMSO, Sigma-Aldrich, St. Louis, MO, cat. D2650) at 800-fold the tested concentration and stored at -70 degrees C prior to their use. All drugs and investigational agents were tested over a range starting from a high concentration at or near the clinical Cmax and decreasing in half-log increments. If the clinical Cmax for an agent had not been determined, the highest concentration tested was 10 microM.
# Cell Culture. All cells were maintained in an incubator at 37 degrees C and 5% CO2 with 95% humidity. The PDC lines were cultured according to standard operating procedures established by the NCI PDMR (https://pdmr.cancer.gov/sops/default.htm). All PDCs were thawed and cultured in Matrigel-coated flasks prepared with a working solution of 1X Ham's F-12 nutrient mix, without supplementation (Invitrogen, Waltham, MA, cat. 11765054), 100 U/mL penicillin-streptomycin (Invitrogen, cat. 15140122), and 2.5% Matrigel (Corning Inc., Corning, NY, cat. 354248) for the first three passages. The 354836-022-R-J1-PDC, 475296-252-R-J1-PDC, and 997726-040-R-J2-PDC lines were cultured in 6A media, which includes advanced DMEM/F-12 (Thermo Fisher Scientific, cat. 12634028), 10 mM HEPES (Thermo Fisher Scientific, cat. 15630080), 1X GlutaMAX supplement (Thermo Fisher Scientific, cat. 35050061), 0.1 mg/mL primocin (InvivoGen, San Diego, CA, cat. ant-pm-2), 10% defined fetal bovine serum, heat inactivated (HyClone Laboratories Inc., Logan, UT, cat. SH30070.03HI), 50% L-WRN conditioned media (ATCC, cat. CRL-3276), 1.25 mM N-Acetyl-L-cysteine (Sigma-Aldrich, cat. A9165), 10 mM nicotinamide (Sigma-Aldrich, cat. N0636), 1X B-27 supplement (Thermo Fisher Scientific, cat. 17504044), 1X N-2 supplement (Thermo Fisher Scientific, cat. 17502048), and 10 microM Y-27632 dihydrochloride (Tocris Bioscience, Bristol, United Kingdom, cat. 1254). The 624824-186-R-J2-PDC line was cultured in 6C/Colon 1B media, which includes all 6A media components plus 50 ng/mL human EGF recombinant protein (Thermo Fisher Scientific, cat. PHG0311). […]
# 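Further: spheroids exposed to agents for seven days before readout.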
# 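Wherever viability, T/C is given: percent viability relative to DMSO vehicle control taken as 100%.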
compound,measurement,setting,value
CC1(C)CCC(CN2CCN(c3ccc(C(=O)NS(=O)(=O)c4ccc(NCC5CCOCC5)c([N+](=O)[O-])c4)c(Oc4cnc5[nH]ccc5c4)c3)CC2)=C(c2ccc(Cl)cc2)C1 + CC(Nc1ccc2c(c1)OCCn1cc(N3C(=O)OCC3C(F)F)nc1-2)C(N)=O,IC50,second compound 0.00316 µM,5.38 µM
same,IC50,second compound 0.01 µM,4.1 µM
same,IC50,second compound 0.0316 µM,4.86 µM
same,IC50,second compound 0.1 µM,4.85 µM
same,IC50,second compound 0.316 µM,2.16 µM
same,IC50,second compound 1 µM,3.2 µM
same,"viability, T/C","second compound 0.00316 µM, first compound 0.0316 µM",99.3%
same,"viability, T/C","second compound 0.00316 µM, first compound 0.1 µM",94.1%
same,"viability, T/C","second compound 0.00316 µM, first compound 0.316 µM",71.9%
same,"viability, T/C","second compound 0.00316 µM, first compound 1 µM",109%
same,"viability, T/C","second compound 0.00316 µM, first compound 3.16 µM",90.1%
same,"viability, T/C","second compound 0.00316 µM, first compound 10 µM",3.01%
same,"viability, T/C","second compound 0.01 µM, first compound 0.0316 µM",86%
same,"viability, T/C","second compound 0.01 µM, first compound 0.1 µM",85.5%
same,"viability, T/C","second compound 0.01 µM, first compound 0.316 µM",96.3%
same,"viability, T/C","second compound 0.01 µM, first compound 1 µM",74.7%
same,"viability, T/C","second compound 0.01 µM, first compound 3.16 µM",65.7%
same,"viability, T/C","second compound 0.01 µM, first compound 10 µM",2.45%
same,"viability, T/C","second compound 0.0316 µM, first compound 0.0316 µM",79.3%
same,"viability, T/C","second compound 0.0316 µM, first compound 0.1 µM",66.2%
same,"viability, T/C","second compound 0.0316 µM, first compound 0.316 µM",75.8%
same,"viability, T/C","second compound 0.0316 µM, first compound 1 µM",73.6%
same,"viability, T/C","second compound 0.0316 µM, first compound 3.16 µM",93.5%
same,"viability, T/C","second compound 0.0316 µM, first compound 10 µM",3.53%
same,"viability, T/C","second compound 0.1 µM, first compound 0.0316 µM",60.9%
same,"viability, T/C","second compound 0.1 µM, first compound 0.1 µM",85.6%
same,"viability, T/C","second compound 0.1 µM, first compound 0.316 µM",86.5%
same,"viability, T/C","second compound 0.1 µM, first compound 1 µM",81%
same,"viability, T/C","second compound 0.1 µM, first compound 3.16 µM",78.8%
same,"viability, T/C","second compound 0.1 µM, first compound 10 µM",1.51%
same,"viability, T/C","second compound 0.316 µM, first compound 0.0316 µM",75.8%
same,"viability, T/C","second compound 0.316 µM, first compound 0.1 µM",69.3%
same,"viability, T/C","second compound 0.316 µM, first compound 0.316 µM",65.2%
same,"viability, T/C","second compound 0.316 µM, first compound 1 µM",77.2%
same,"viability, T/C","second compound 0.316 µM, first compound 3.16 µM",39.2%
same,"viability, T/C","second compound 0.316 µM, first compound 10 µM",4.28%
same,"viability, T/C","second compound 1 µM, first compound 0.0316 µM",66.8%
same,"viability, T/C","second compound 1 µM, first compound 0.1 µM",49%
same,"viability, T/C","second compound 1 µM, first compound 0.316 µM",47.4%
same,"viability, T/C","second compound 1 µM, first compound 1 µM",58.2%
same,"viability, T/C","second compound 1 µM, first compound 3.16 µM",50.1%
same,"viability, T/C","second compound 1 µM, first compound 10 µM",2.38%
